In patent US10066238B2, “Methods for producing antibodies” (priority 2013, dated 2018):
Like-named read-outs stand apart in the source and are kept apart here.

Legend:
[1] = target: FcγRI (Homo sapiens, UniProt P12314); assay: FcγRI binding in ELISA and in flow cytometry; settings: data not shown
[2] = system: Q769.h5 pseudovirus (clade A); settings: reported by Wu et al. (16); cited from earlier work
[3] = system: SF162 pseudovirus (clade B); settings: reported by Wu et al. (16); cited from earlier work
[4] = system: Du156 pseudovirus (clade C); settings: reported by Wu et al. (16); cited from earlier work
[5] = system: Q769.h5 pseudovirus (clade A); assay: HIV-1 neutralization assay (Env-pseudotyped virus, Luc reporter); assay type: cell-based
[6] = system: SF162 pseudovirus (clade B); assay: as above; assay type: cell-based
[7] = system: SS1196.1 pseudovirus (clade B); assay: as above; assay type: cell-based
[8] = system: Du156 pseudovirus (clade C); assay: as above; assay type: cell-based
[9] = system: HIV-1 BaL; settings: topical gel formulation; CCR5-using HIV-1 BaL; Veselinovic, et al.; cited from earlier work
[10] = target: recombinant hemagglutinin (HA) (A/New Caledonia/20/99); assay: SPR analysis of captured CR6261; assay type: binding, influenza H1N1; settings: HA as analyte, bivalent analyte kinetics fit, read-out: equilibrium dissociation constant, KD
[11] = TZM-b1 cells, TFV concentration in combination, mean ± SEM, read-out: IC50 in a respective combination with VRC01p
[12] = TZM-b1 cells, TFV, mean ± SEM, read-out: IC50 when used individually
[13] = read-out: IC50 in a respective combination with VRC01p, TZM-b1 cells, GRFT, MVC concentration in combination, mean ± SEM
[14] = read-out: IC50 when used individually, TZM-b1 cells, GRFT, MVC, mean ± SEM
[15] = TZM-b1 cells, GRFT, MVC concentration in combination, mean ± SEM, read-out: IC50 in a respective combination with VRC01p
[16] = TZM-b1 cells, GRFT, MVC, mean ± SEM, read-out: IC50 when used individually

Chain of FcγRI (P12314 16-374, species assumed): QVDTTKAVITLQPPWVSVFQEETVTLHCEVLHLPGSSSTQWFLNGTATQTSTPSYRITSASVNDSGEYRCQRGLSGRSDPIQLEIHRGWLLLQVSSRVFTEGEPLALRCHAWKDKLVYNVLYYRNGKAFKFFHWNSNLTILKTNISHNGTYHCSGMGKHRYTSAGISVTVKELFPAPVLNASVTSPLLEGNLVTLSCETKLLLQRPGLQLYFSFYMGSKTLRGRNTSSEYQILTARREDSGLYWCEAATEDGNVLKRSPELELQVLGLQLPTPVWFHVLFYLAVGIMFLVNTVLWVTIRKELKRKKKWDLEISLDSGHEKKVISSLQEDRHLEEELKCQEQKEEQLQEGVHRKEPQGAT

Compound: VRC01p: Nicotiana plant-expressed anti-HIV-1 bnMAb VRC01 IgG1 from the L-(KP6pp)-H construct
- binding to FcγRI compared with a human IgG1 isotype control [1]: nearly an order of magnitude less

Compound: VRC01HEK: HEK293F cell-produced bnMAb VRC01
- VRC01HEK IC50 [2]: 0.084 µg/mL
- VRC01HEK IC50 [3]: 0.139 µg/mL
- VRC01HEK IC50 [4]: 0.089 µg/mL

Compound: C[C@H](Cn1cnc2c(N)ncnc21)OCP(=O)(O)O [TFV, tenofovir]
- IC50 [5, 11]: 2090 ± 390 nM
- IC50 [5, 12]: 21200 ± 3530 nM
- dose reduction index (DRI) in a respective combination with VRC01p ([5]; mean ± SEM): 8.40 ± 1.41
- IC50 [6, 11]: 880 ± 400 nM
- IC50 [6, 12]: 2700 ± 1020 nM
- dose reduction index (DRI) in a respective combination with VRC01p ([6]; mean ± SEM): 2.10 ± 0.34
- IC50 [7, 11]: 1920 ± 340 nM
- IC50 [7, 12]: 7650 ± 2390 nM
- dose reduction index (DRI) in a respective combination with VRC01p ([7]; mean ± SEM): 3.76 ± 0.68
- IC50 [8, 11]: 60 nM
- IC50 [8, 12]: 7140 ± 1910 nM
- dose reduction index (DRI) in a respective combination with VRC01p ([8]; mean ± SEM): 3.01 ± 0.65

Compound: maraviroc [MVC]
- dose reduction index (DRI) in a respective combination with VRC01p ([5]; mean ± SEM): 4.40 ± 0.71
- IC50 [5, 13]: 5.27 ± 1.12 nM
- IC50 [5, 14]: 29.6 ± 7.75 nM
- dose reduction index (DRI) in a respective combination with VRC01p ([6]; mean ± SEM): 4.21 ± 0.25
- IC50 [6, 13]: 18.3 ± 7.9 nM
- IC50 [6, 14]: 54.9 ± 29.3 nM
- dose reduction index (DRI) in a respective combination with VRC01p ([7]; mean ± SEM): 5.06 ± 0.39
- IC50 [7, 13]: 15.6 ± 8.87 nM
- IC50 [7, 14]: 96.4 ± 28.5 nM
- dose reduction index (DRI) in a respective combination with VRC01p ([8]; mean ± SEM): 5.93 ± 0.96
- IC50 [8, 13]: 32.2 ± 11.5 nM
- IC50 [8, 14]: 199 ± 40.4 nM

Compound: VRC01: CD4-binding site (CD4bs)-specific bnMAb isolated from a slowly progressing HIV-1 infected donor
- protection against vaginal challenge [9]: protected

Compound: griffithsin [GRFT]
- IC50 [5, 15]: 0.79 ± 0.19 nM
- IC50 [5, 16]: 12.4 ± 2.88 nM
- dose reduction index (DRI) in a respective combination with VRC01p ([5]; mean ± SEM): 11.3 ± 2.95
- IC50 [6, 15]: 0.1 ± 0.03 nM
- IC50 [6, 16]: 0.59 ± 0.34 nM
- dose reduction index (DRI) in a respective combination with VRC01p ([6]; mean ± SEM): 3.19 ± 1.16
- IC50 [7, 15]: 0.01 ± 0.001 nM
- IC50 [7, 16]: 0.04 ± 0.01 nM
- dose reduction index (DRI) in a respective combination with VRC01p ([7]; mean ± SEM): 2.98 ± 0.72
- IC50 [8, 15]: 0.003 ± 0.0004 nM
- IC50 [8, 16]: 0.02 ± 0.001 nM
- dose reduction index (DRI) in a respective combination with VRC01p ([8]; mean ± SEM): 6.29 ± 0.66

Compound: CR6261: anti-influenza bnMAb CR6261 IgG1 (PDB ID: 3GBM) expressed in N. benthamiana
- Kd [10]: 0.055 ± 0.0036 nM
